Here are results for ten molecules from patent US11642346B2, “Combination therapy for treating cancer” (Epizyme, Inc., priority 2017, dated 2023).

Test [1] relates to G401 cells. As to the kind of experiment: Combination of tazemetostat with other agents, co-treatment model, luminescent cell viability (ATP) assay. The format is cell-based. Conditions: grown for seven days. An excerpt:
(§1) Proliferation data was read for luminescence.

Test [2] concerns A204 cells. Described as above. The class given is cell-based. Conditions: grown for seven days.
Text: as §1

Test [3] deals with CHLA-266 cells. As to the kind of experiment: Combination of tazemetostat with other agents, pretreatment model, luminescent cell viability (ATP) assay. The format is cell-based. Particulars: pretreatment model: 4 days tazemetostat, then 4 days agent alone or with tazemetostat, synergy by Loewe Volume, Fa-CI plots. The procedure: (§2) Proliferation data was read for luminescence. Calculations of synergy were performed using the Loewe Volume (Chalice Software) and Fa-CI plots were generated with Calcusyn.

For test [4], the system named is BT-12 cells. Described as above. The class given is cell-based. Particulars: pretreatment model: 4 days tazemetostat, then 4 days agent alone or with tazemetostat, synergy by Loewe Volume, Fa-CI plots. The procedure:
as §2

The test system of test [5] is AT/RT and MRT cell lines. As to the kind of experiment: In vitro combination studies of tazemetostat in a panel of AT/RT and MRT cell lines. The class given is cell-based. Particulars: cell line models of AT/RT and MRT.
The test system of test [6] is MRT. Conditions: preclinical models of MRT; cited from earlier work.
In test [7] the test system is atypical teratoid rhabdoid tumor (AT/RT) cells. As to the kind of experiment: Tazemetostat pre-treatment followed by X-ray irradiation, 11 day clonogenic assay. The class given is cell-based. Particulars: primed seven days, X-ray 2 Gy.
The test system of test [8] is CHLA-266 cells. Briefly: Antiproliferative activity of tazemetostat, 2D culture, luminescent cell viability assay. The class given is cell-based. Particulars: 0.08-10 μM, days 4, 6, 7, 11 and 15. The procedure: (§3) Cell viability was measured in a luminescent cell viability assay and is represented by luminescence counts.
Test [9] has as its system BT-12 cells. The description is as above. The class given is cell-based. Conditions: 0.08-10 μM, days 4, 6, 7, 11 and 15. The procedure: as §3

In the case of `Nc1ccccc1NC(=O)c1ccc(CNC(=O)OCc2cccnc2)cc1` [Entinostat], the “Combination treatment with tazemetostat, G401” value (“Combination treatment … G401” for short) in test [1] is “Synergy”; in [1] (listed as entinostat), “synergy”. Besides, the “Combination treatment with tazemetostat, A204” value (“Combination treatment … A204” for short) is “Additive” in test [2] and “synergy” in test [2] (listed as entinostat). Also, the “Combination treatment with tazemetostat, CHLA-266” value (shortened to “Combination treatment … CHLA-266”) was “Synergy” in [3] and “synergy” in [3] (listed as entinostat). The “Combination treatment with tazemetostat, BT-12” value (“Combination treatment … BT-12” below) in [4] is reported as “Synergy”; in test [4] (listed as entinostat), “synergy”. The “Antiproliferative effect of combination with tazemetostat” value (shortened to “Antiproliferative effect of combination”) in [5] is reported as “enhanced the antiproliferative effect”.
In the case of `COc1cc(Nc2ncc3c(n2)-c2ccc(Cl)cc2C(c2c(F)cccc2OC)=NC3)ccc1C(=O)O` [Alisertib], the “Combination treatment … G401” value in test [1] was “Additive”; in [1] (listed as alisertib), “synergy”. Moreover, the “Combination treatment … A204” value is “Additive” in test [2] and “synergy” in test [2] (listed as alisertib). Further, the “Combination treatment … CHLA-266” value in [3] was “Synergy”; in [3] (listed as alisertib) it was “synergy”. Also, the “Combination treatment … BT-12” value is given as “Synergy” in test [4] and “synergy” in test [4] (listed as alisertib). Moreover, the “Antiproliferative effect of combination” value in test [5] is on record as “Synergistic activity”.
Turning to `CC[C@]1(O)C[C@H]2CN(CCc3c([nH]c4ccccc34)[C@@](C(=O)OC)(c3cc4c(cc3OC)N(C=O)[C@H]3[C@@](O)(C(=O)OC)[C@H](OC(C)=O)[C@]5(CC)C=CCN6CC[C@]43[C@@H]65)C2)C1` [Vincristine], the “Combination treatment … G401” value in test [1] (listed as vincristine) was “synergy”. In addition, the “Combination treatment … A204” value in test [2] is recorded as “Synergy”; in [2] (listed as vincristine), “synergy”. The “Combination treatment … CHLA-266” value is “Synergy” in test [3] and “synergy” in test [3] (listed as vincristine). Besides, the “Combination treatment … BT-12” value in test [4] is given as “Synergy”; in [4] (listed as vincristine), “synergy”. Further, the “Antiproliferative effect of combination” value in [5] is “Synergistic activity”.
Regarding `Nc1ccn([C@@H]2O[C@H](CO)[C@@H](O)[C@@H]2O)c(=O)n1` [Cytarabine/Ara-C, Cytarabine], the “Combination treatment … G401” value in test [1] is “Additive”. Moreover, the “Combination treatment … A204” value in test [2] is recorded as “Additive”. Moreover, in test [3], the “Combination treatment … CHLA-266” value was “Additive”. For the same molecule, in test [4], the “Combination treatment … BT-12” value is listed as “Synergy”.
As to `CCN(c1cc(-c2ccc(CN3CCOCC3)cc2)cc(C(=O)NCc2c(C)cc(C)[nH]c2=O)c1C)C1CCOCC1` [tazemetostat], in [6], the “Tumor response to tazemetostat treatment” value is “robust tumor regressions”. Besides, the “Clonogenic survival, tazemetostat priming prior to X-ray irradiation” value in test [7] was “reduction in clonogenic survival”. Moreover, the “Cell death / cell viability” value in test [8] was “Time and dose dependent increases in cell death”; in test [9] it was “Time and dose dependent increases in cell death”.
For `COc1cc([C@@H]2c3cc4c(cc3[C@@H](O[C@@H]3O[C@@H]5CO[C@@H](C)O[C@H]5[C@H](O)[C@H]3O)[C@H]3COC(=O)[C@H]23)OCO4)cc(OC)c1O` [Etoposide], the “Combination treatment … G401” value in test [1] is “Synergy”. Moreover, the “Combination treatment … A204” value in [2] is “Additive”. Moreover, in test [3], the “Combination treatment … CHLA-266” value is listed as “Additive”. Moreover, the “Combination treatment … BT-12” value in test [4] is listed as “Additive”.
`N.N.O=C([O-])C1(C(=O)[O-])CCC1.[Pt+2]` [Carboplatin]: the “Combination treatment … A204” value in test [2] is on record as “Additive”. Moreover, in test [3], the “Combination treatment … CHLA-266” value is given as “Additive”. Also, the “Combination treatment … BT-12” value in test [4] is listed as “Additive”.
`CO[C@H]1C[C@@H]2CC[C@@H](C)[C@@](O)(O2)C(=O)C(=O)N2CCCC[C@H]2C(=O)O[C@H]([C@H](C)C[C@@H]2CC[C@@H](OCCO)[C@H](OC)C2)CC(=O)[C@H](C)/C=C(\C)[C@@H](O)[C@@H](OC)C(=O)[C@H](C)C[C@H](C)/C=C/C=C/C=C/1C` [Everolimus]: the “Combination treatment … G401” value in test [1] is listed as “Additive”. Also, in test [2], the “Combination treatment … A204” value is listed as “Additive”. The “Combination treatment … CHLA-266” value in test [3] was “Synergy”. Moreover, the “Combination treatment … BT-12” value in test [4] is given as “Synergy”.
Take `CC[C@@]1(O)C(=O)OCc2c1cc1n(c2=O)Cc2cc3c(CN(C)C)c(O)ccc3nc2-1` [Topotecan]: in test [1], the “Combination treatment … G401” value is recorded as “Synergy”. Moreover, the “Combination treatment … A204” value in test [2] is on record as “Additive”. The “Combination treatment … CHLA-266” value in test [3] is “Synergy”. Besides, the “Combination treatment … BT-12” value in test [4] is on record as “Synergy”. In addition, in test [5], the “Antiproliferative effect of combination” value is “synergistic interactions”.
As for `COc1cccc2c1C(=O)c1c(O)c3c(c(O)c1C2=O)C[C@@](O)(C(=O)CO)C[C@@H]3O[C@H]1C[C@H](N)[C@H](O)[C@H](C)O1` [Doxorubicin], the “Combination treatment … G401” value in test [1] is listed as “Additive”; in [1] (listed as doxorubicin), “synergy”. Besides, the “Combination treatment … A204” value in [2] is “Additive”; in [2] (listed as doxorubicin), “synergy”. Also, the “Combination treatment … CHLA-266” value is reported as “Synergy” in test [3] and “synergy” in test [3] (listed as doxorubicin). For the same molecule, the entries for the “Combination treatment … BT-12” value in test [4] and in test [4] (listed as doxorubicin) were “Synergy” and “synergy”, respectively. Also, the “Antiproliferative effect of combination” value in test [5] is given as “Synergistic activity”.
